Laboratory results published in patent US8513232B2, “Substituted spirocyclic piperidine derivatives as histamine-3 (H3) receptor ligands” (Cephalon, Inc., priority 2008, dated 2013).
pKi: −log10 of the molar value. Read-outs that look alike come from different tables or passages of the source.

How the values were obtained:
[1] = target: T1, rat histamine H3 receptor (Rattus norvegicus, UniProt Q9QYN8); assay: Rat H3 radioligand binding ([3H]-N-alpha-methylhistamine, SPA)
T1 construct: encoding the entire 445-amino-acid rat histamine H3 receptor; expressed in transfected cells; membrane preparation
Summary of the method: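 SPA-bead binding assay using [3H]-N-alpha-methylhistamine (approximately 1 nM final) with test compounds from 0.01 nM to 30 μM. Rat H3 receptor membranes came from stably transfected CHO-A3 cells; incubation ran 4 h at room temperature, in the dark, in Tris pH 7.4 buffer with MgCl2 and BSA. Clobenpropit (10 μM) gave non-specific binding.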

human H3 receptor = target: T2, human H3 receptor (Homo sapiens, UniProt Q9Y5N1); assay: Human H3 radioligand binding ([3H]-N-alpha-methylhistamine, SPA)
T2 construct: expressed in transfected cells
Summary of the method: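 Compounds (0.01 nM-30 μM) competed with approximately 1 nM [3H]-N-alpha-methylhistamine for human H3 receptor in membranes of stably transfected CHO cells, 10 μg protein per well, in Tris-HCl pH 7.4/MgCl2/BSA buffer for 4 h at room temperature. Bound radioligand measured by scintillation proximity; 10 μM clobenpropit gave non-specific binding.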

[2] = Rat H3 binding, Table B, Examples 136-362, read-out: rat H3 binding Ki
[3] = Human H3 binding, Table B, Examples 136-362, read-out: hum H3 binding Ki
[4] = rat H3 binding, Table D, read-out: Rat H3 Ki
[5] = human H3 binding, Table D, read-out: Human H3 Ki
[6] = Table A, rat H3 binding, read-out: Rat Ki
[7] = Table A, human H3 binding, read-out: Human Ki
[8] = Table C, rat H3 binding, read-out: Rat H3 Ki
[9] = Table C, human H3 binding, read-out: Human H3 Ki

T1 sequence (Q9QYN8 whole entry): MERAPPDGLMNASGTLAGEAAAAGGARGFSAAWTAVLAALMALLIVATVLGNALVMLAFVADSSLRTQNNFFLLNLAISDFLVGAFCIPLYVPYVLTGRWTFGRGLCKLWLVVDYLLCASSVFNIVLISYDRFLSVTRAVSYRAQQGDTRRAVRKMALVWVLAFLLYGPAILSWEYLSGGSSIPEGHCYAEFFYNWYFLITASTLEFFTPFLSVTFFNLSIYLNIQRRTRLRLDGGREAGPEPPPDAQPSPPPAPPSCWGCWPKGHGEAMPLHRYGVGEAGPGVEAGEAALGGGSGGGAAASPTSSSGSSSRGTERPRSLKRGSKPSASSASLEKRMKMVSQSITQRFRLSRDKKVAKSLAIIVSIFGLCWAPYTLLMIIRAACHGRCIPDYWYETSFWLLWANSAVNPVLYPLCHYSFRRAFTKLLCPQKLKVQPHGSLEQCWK
T2 sequence (Q9Y5N1 whole entry): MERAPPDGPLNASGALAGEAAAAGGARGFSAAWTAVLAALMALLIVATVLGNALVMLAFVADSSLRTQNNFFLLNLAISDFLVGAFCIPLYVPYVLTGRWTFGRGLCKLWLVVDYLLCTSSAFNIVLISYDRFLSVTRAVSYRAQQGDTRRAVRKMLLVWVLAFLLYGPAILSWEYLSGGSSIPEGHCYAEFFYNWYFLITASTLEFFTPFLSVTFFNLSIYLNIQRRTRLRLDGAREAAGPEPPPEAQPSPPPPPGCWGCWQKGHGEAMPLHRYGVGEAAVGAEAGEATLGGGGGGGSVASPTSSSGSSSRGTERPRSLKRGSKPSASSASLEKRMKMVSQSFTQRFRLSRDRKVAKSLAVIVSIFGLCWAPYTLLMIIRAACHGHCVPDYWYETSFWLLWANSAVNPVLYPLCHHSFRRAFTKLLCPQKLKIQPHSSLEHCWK

Row | pKi [1, 2] | pKi (human H3 receptor; [3]) | melting point | pKi [1, 4] | pKi (human H3 receptor; [5]) | Compound | further results
1 | > 6.70 | > 6.70 | 254 to 255 °C |  |  | O=C(Nc1ccc2c(c1)COC1(CCN(C3CCC3)CC1)O2)c1ccc2nccn2c1 [Example 345] | 
2 |  |  | 89 to 91 °C | > 6.70 | > 6.70 | CNC(=O)c1cc(-c2ccc3c(c2)CCC2(CCN(C4CCC4)CC2)O3)ccc1Cl [Example 582] | 
3 |  |  | 239.2 °C |  |  | CCOC(=O)c1cncc(-c2ccc3c(c2)COC2(CCN(C4CCC4)CC2)O3)c1 [Example 59] | pKi [1, 6]: > 6.70; pKi (human H3 receptor; [7]): > 6.70
4 |  |  | 204.2 to 206.4 °C | > 6.70 | > 6.70 | CN(C)C(=O)NC1CCN(c2ccc3c(c2)CCC2(CCN(C4CCC4)CC2)O3)CC1 [Example 573] | 
5 |  |  | 186 to 187.5 °C | > 6.70 | > 6.70 | CC(C)NC(=O)c1ccc(-c2ccc3c(c2)COC2(CCN(C4CCC4)CC2)O3)cc1Cl [Example 596] | 
6 | 6.00 to 6.70 | > 6.70 | 67 to 70 °C |  |  | O=c1oc2ccccc2n1-c1ccc2c(n1)COC1(CCN(C3CCC3)CC1)O2 [Example 161] | 
7 |  |  | 159.8 to 160.7 °C |  |  | N#Cc1ccc(-c2ccc3c(c2)COC2(CCN(C4CCC4)CC2)O3)cn1 [Example 34] | pKi [1, 6]: > 6.70; pKi (human H3 receptor; [7]): > 6.70
8 | > 6.70 | > 6.70 | 125 to 126.3 °C |  |  | COCCNC(=O)c1c(F)cc(-c2ccc3c(c2)COC2(CCN(C4CCC4)CC2)O3)cc1F [Example 262] | 
9 |  |  | 243 to 245 °C |  |  | COc1cccc(N2CCN(c3ccc4c(c3)CCC3(CCN(C5CCC5)CC3)O4)CC2)n1 [Example 382] | pKi [1, 8]: > 6.70; pKi (human H3 receptor; [9]): > 6.70
10 |  |  | 210 to 212 °C | > 6.70 | > 6.70 | COc1ncccc1-c1ccc2c(c1)COC1(CCN(C3CCC3)CC1)O2 [Example 747] | 
11 | > 6.70 | > 6.70 | 141 to 143 °C |  |  | CNC(=O)c1cc(COc2ccc3c(c2)CCC2(CCN(C4CCC4)CC2)O3)ccn1 [Example 292] | 
12 |  |  | 100 to 103 °C | 6.00 to 6.70 | > 6.70 | CNC(=O)c1cc(-c2ccc3c(c2)CCC2(CCN(C4CCC4)C2)O3)ccc1Cl (stereo not drawn) [Example 581] | 
13 |  |  | 165 to 167 °C |  |  | O=C(N1CCCC1)N1CCN(c2ccc3c(c2)CCC2(CCN(C4CCC4)CC2)O3)CC1 [Example 388] | pKi [1, 8]: > 6.70; pKi (human H3 receptor; [9]): > 6.70
14 | < 6.00 | 6.00 to 6.70 | 155.6 to 157.3 °C |  |  | CNC(=O)c1ccc(-c2ccc3c(c2)CCOC2(CCN(C4CCC4)CC2)O3)cc1 [Example 180] | 
15 |  |  | 85 to 90 °C |  |  | OC(c1ccc2c(c1)COC1(CCN(C3CCC3)CC1)O2)C1CCSCC1 (stereo not drawn) [Example 496] | pKi ([1]; read-out: Rat H3 kI): > 6.70; pKi (human H3 receptor; read-out: Human H3 Ki): > 6.70
16 | > 6.70 | > 6.70 | 206 to 208 °C |  |  | N#Cc1ccc(C(=O)Nc2ccc3c(c2)COC2(CCN(C4CCC4)CC2)O3)cc1 [Example 154] | 
17 | > 6.70 | > 6.70 | 213 to 215 °C |  |  | O=C(Nc1ccc2c(c1)CCC1(CCN(C3CCC3)CC1)O2)c1ccnnc1 [Example 289] | 
18 | > 6.70 | > 6.70 | 156 to 158 °C |  |  | CNC(=O)c1ccc(-c2cc(F)c3c(c2)COC2(CCN(C4CCC4)CC2)O3)cc1F [Example 142] | 
19 |  |  | 87 to 89 °C | > 6.70 | > 6.70 | Cc1nnc(CCc2ccc3c(c2)COC2(CCN(C4CCC4)CC2)O3)o1 [Example 673] | 
20 | > 6.70 | > 6.70 | 79 to 84 °C |  |  | O=C(c1ccc(Nc2ccc3c(c2)COC2(CCN(C4CCC4)CC2)O3)cc1)N1CCOCC1 [Example 172] | 
21 | > 6.70 | > 6.70 | 63 to 65 °C |  |  | CC(=O)N(Cc1ccncc1)c1ccc2c(c1)COC1(CCN(C3CCC3)CC1)O2 [Example 250] | 
22 |  |  | 196 to 198 °C | > 6.70 | > 6.70 | O=C(N[C@H]1CCOC1)c1ccc(-c2ccc3c(c2)CCC2(CCN(C4CCC4)CC2)O3)cc1 [Example 580] | 
23 | > 6.70 | > 6.70 | 169 to 171 °C |  |  | Cc1ncoc1C(=O)Nc1ccc2c(c1)CCC1(CCN(C3CCC3)CC1)O2 [Example 243] | 
24 |  |  | 101.6 to 103.2 °C | > 6.70 | > 6.70 | CCOCC1CCN(c2ccc3c(c2)CCC2(CCN(C4CCC4)CC2)O3)CC1 [Example 626] | 

Row | pKi [1, 2] | pKi (human H3 receptor; [3]) | melting point | pKi [1, 4] | pKi (human H3 receptor; [5]) | Compound | further results
25 |  |  | 57 to 60 °C | > 6.70 | > 6.70 | OC(c1cncnc1)c1ccc2c(c1)COC1(CCN(C3CCC3)CC1)O2 (stereo not drawn) [Example 692] | 
26 |  |  | 123 to 126 °C | > 6.70 | > 6.70 | COc1ccc(-c2ccc3c(c2)COC2(CCN(C4CCC4)CC2)O3)nc1 [Example 650] | 
27 | > 6.70 | > 6.70 | 113 to 114 °C |  |  | COCCNC(=O)c1ccc(-c2ccc3c(c2)COC2(CCN(C4CCC4)CC2)O3)cn1 [Example 195] | 
28 |  |  | 157 to 159 °C | > 6.70 | > 6.70 | CCS(=O)(=O)c1ccc(-c2ccc3c(c2)COC2(CCN(C4CCC4)CC2)O3)cc1Cl [Example 625] | 
29 |  |  | 191 to 193 °C |  |  | NC(=O)c1ccc(Oc2ccc3c(c2)CCC2(CCN(C4CCC4)CC2)O3)nc1 [Example 390] | pKi [1, 8]: > 6.70; pKi (human H3 receptor; [9]): > 6.70
30 |  |  | 263 to 265 °C |  |  | CCOC(=O)C1CC=C(c2ccc3c(c2)COC2(CCN(C4CCC4)CC2)O3)CC1 (stereo not drawn) [Example 487] | pKi ([1]; read-out: Rat H3 kI): > 6.70; pKi (human H3 receptor; read-out: Human H3 Ki): > 6.70
31 |  |  | 191 to 192 °C |  |  | OC1(c2ccc3c(c2)COC2(CCN(C4CCC4)CC2)O3)CCC2(CC1)OCCO2 [Example 492] | pKi ([1]; read-out: Rat H3 kI): > 6.70; pKi (human H3 receptor; read-out: Human H3 Ki): > 6.70
32 |  |  | 250 °C (dec.) | > 6.70 | > 6.70 | COc1ncc(-c2ccc3c(c2)COC2(CCN(C4CCC4)CC2)O3)c(OC)n1 [Example 662] | 
33 |  |  | 84 to 86.4 °C | 6.00 to 6.70 | 6.00 to 6.70 | O=C(O)C1CCCN(c2ccc3c(c2)COC2(CCN(C4CCC4)CC2)O3)C1 (stereo not drawn) [Example 614] | 
34 | > 6.70 | > 6.70 | 107 to 108.5 °C |  |  | COCCNC(=O)c1ccc(-c2ccc3c(c2)COC2(CCN(C4CCC4)CC2)O3)cc1F [Example 202] | 
35 |  |  | 236 to 237 °C | > 6.70 | > 6.70 | O=C(O)c1ccc(-c2ccc3c(c2)COC2(CCN(C4CCC4)CC2)O3)cc1 [Example 668] | 
36 |  |  | 256 to 258 °C |  |  | CCOC(=O)C1CCN(c2ccc3c(c2)CCC2(CCN(C4CCC4)CC2)O3)CC1 [Example 384] | pKi [1, 8]: > 6.70; pKi (human H3 receptor; [9]): > 6.70
37 |  |  | > 280 °C (dec.) |  |  | c1cc2c(cc1N1CCCCC1)CCC1(CCN(C3CCC3)CC1)O2 [Example 393] | pKi [1, 8]: > 6.70; pKi (human H3 receptor; [9]): > 6.70
38 | > 6.70 | > 6.70 | 107 to 110 °C |  |  | CN(C(=O)N1CCN(c2ccc3c(c2)COC2(CCN(C4CCC4)CC2)O3)CC1)c1ccccc1 [Example 293] | 
39 |  |  | 166 to 167 °C | > 6.70 | > 6.70 | O=C(c1ccc(-c2ccc3c(c2)COC2(CCN(C4CCC4)CC2)O3)s1)N1CCOCC1 [Example 643] | 
40 |  |  | 198 to 200 °C | > 6.70 | > 6.70 | CNC(=O)c1cc(-c2ccc3c(c2)COC2(CCN(C4CCC4)CC2)O3)ccc1Cl [Example 584] | 
41 |  |  | 187 to 189 °C | 6.00 to 6.70 | > 6.70 | CN(C)C(=O)/C=C/c1ccc2c(c1)CCC1(CCN(C3CCC3)CC1)O2 [Example 594] | 
42 |  |  | 149 to 151 °C |  |  | OC1(c2ccc3c(c2)COC2(CCN(C4CCC4)CC2)O3)CCCC1 [Example 509] | pKi ([1]; read-out: Rat H3 kI): > 6.70; pKi (human H3 receptor; read-out: Human H3 Ki): > 6.70
43 |  |  | 144 to 146 °C |  |  | COc1ccc(/C=C/c2ccc3c(c2)COC2(CCN(C4CCC4)CC2)O3)cn1 [Example 502] | pKi ([1]; read-out: Rat H3 kI): > 6.70; pKi (human H3 receptor; read-out: Human H3 Ki): > 6.70
44 | > 6.70 | > 6.70 | 158 to 160 °C |  |  | COCCNC(=O)c1ccc(-c2ccc3c(c2)CCC2(CCN(C4CCC4)CC2)O3)cc1 [Example 193] | 
45 |  |  | 242 to 243 °C |  |  | O=C(Nc1nccs1)c1ccc(-c2ccc3c(c2)COC2(CCN(C4CCC4)CC2)O3)cc1 [Example 43] | pKi [1, 6]: > 6.70; pKi (human H3 receptor; [7]): > 6.70
46 |  |  | 150 to 152 °C | > 6.70 | > 6.70 | CCS(=O)(=O)c1ccc(-c2ccc3c(c2)COC2(CCN(C4CCC4)CC2)O3)s1 [Example 661] | 
47 |  |  | 259 to 261 °C |  |  | c1cc2c(cc1O[C@H]1CCOC1)CCC1(CCN(C3CCC3)CC1)O2 [Example 450] | pKi ([1]; read-out: Rat H3 kI): > 6.70; pKi (human H3 receptor; read-out: Human H3 Ki): > 6.70
48 | > 6.70 | > 6.70 | 59.8 to 60.9 °C |  |  | COCCNC(=O)c1ccc(-c2ccc3c(c2)CCC2(CCN(C4CCC4)CC2)O3)cc1C [Example 233] | 

Row | Compound | pKi [1, 2] | pKi (human H3 receptor; [3]) | melting point | pKi [1, 4] | pKi (human H3 receptor; [5]) | further results
49 | c1cc2c(cc1N1CCNCC1)CCC1(CCN(C3CCC3)CC1)O2 [Example 377] |  |  | 116 to 118 °C |  |  | pKi [1, 8]: > 6.70; pKi (human H3 receptor; [9]): > 6.70
